Results on 29 molecules are retold here after patent publication US20070249670A1, “Glycogen Phosphorylase Inhibitor Compounds and Pharmaceutical Compositions Thereof” (SMITHKLINE BEECHAM CORPORATION, priority 2004, published 2007).

A word on the IC50: it is the concentration needed to halve the response being measured.

This assay addresses T1, human liver glycogen phosphorylase a (HLGPa) (Homo sapiens, UniProt P06737).
T1 construct: creating a full-length cDNA fused at the 5′ end to codons for methionine-glycine-alanine-histidine; 6xHis tag (leader Met-Gly-Ala-His6-Gly-Gly) (N); made in house; host or cells: E. coli (bacterial expression plasmid pTXK1007LTev)
T1 sequence (P06737 2-847 limits assumed): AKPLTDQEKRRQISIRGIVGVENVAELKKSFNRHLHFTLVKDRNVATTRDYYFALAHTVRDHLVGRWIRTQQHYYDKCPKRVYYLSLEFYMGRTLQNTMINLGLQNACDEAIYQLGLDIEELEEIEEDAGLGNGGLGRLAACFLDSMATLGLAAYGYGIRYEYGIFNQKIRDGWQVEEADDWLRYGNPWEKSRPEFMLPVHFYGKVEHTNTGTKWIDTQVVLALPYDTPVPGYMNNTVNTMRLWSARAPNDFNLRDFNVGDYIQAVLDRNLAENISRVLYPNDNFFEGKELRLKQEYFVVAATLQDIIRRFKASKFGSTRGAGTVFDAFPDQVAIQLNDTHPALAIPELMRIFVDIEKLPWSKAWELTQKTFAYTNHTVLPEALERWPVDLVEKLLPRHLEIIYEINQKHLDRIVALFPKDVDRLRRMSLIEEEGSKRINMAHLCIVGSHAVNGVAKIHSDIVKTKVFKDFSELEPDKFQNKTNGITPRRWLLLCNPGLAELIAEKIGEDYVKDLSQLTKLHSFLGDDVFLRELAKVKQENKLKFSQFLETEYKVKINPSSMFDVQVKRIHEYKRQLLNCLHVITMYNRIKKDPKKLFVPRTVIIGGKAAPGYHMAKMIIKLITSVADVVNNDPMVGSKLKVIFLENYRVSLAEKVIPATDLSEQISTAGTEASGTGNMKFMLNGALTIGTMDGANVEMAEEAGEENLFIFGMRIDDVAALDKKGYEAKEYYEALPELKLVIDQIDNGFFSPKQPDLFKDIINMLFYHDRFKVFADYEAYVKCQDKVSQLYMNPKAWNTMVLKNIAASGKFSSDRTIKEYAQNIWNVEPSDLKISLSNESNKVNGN
Kind of assay: Human liver glycogen phosphorylase a enzymatic activity assay (coupled, fluorescent resorufin readout, with and without 10 mM glucose). It is filed as biochemical.

The mark [1] stands for this setting: human liver glycogen phosphorylase a, table does not say whether with or without 10 mM glucose.
[2] abbreviates: human liver glycogen phosphorylase a enzymatic activity assay.

On to `Cc1cc(C(=O)O)c(NC(=O)Nc2c(Cl)cccc2Cl)s1` [Example 388, 2-({[(2,6-dichlorophenyl)amino]carbonyl}amino)-5-methyl-3-thiophenecarboxylic acid], for which, under setting [1], the half-maximal inhibitory concentration (IC50) stood at 19.7 µM. On to `COC(=O)[C@@H](NC(=O)c1cc(C)sc1NC(=O)Nc1c(Cl)cccc1Cl)C1CCCCC1` [Example 389, methyl(2S)-cyclohexyl({[2-({[(2,6-dichlorophenyl)amino]carbonyl}amino)-5-methyl-3-thienyl]carbonyl}amino)ethanoate], for which the concentration for half-maximal inhibition (IC50) under setting [1] came out at 15.6 µM.

For the molecule `Cc1cc(C(=O)N[C@H](C(=O)O)C2CCCCC2)c(NC(=O)Nc2c(Cl)cccc2Cl)s1` [Example 390, (2S)-cyclohexyl({f[2-({[(2,6-dichlorophenyl)amino]carbonyl}amino)-5-methyl-3-thienyl]carbonyl}amino)ethanoic acid], the IC50 under setting [1] is 17.5 µM. This IC50 and that of the molecule before are within 1.5-fold of each other. Same read-out and setting: then `O=C(Nc1sc(-c2ccccc2)cc1C(=O)O)Nc1c(Cl)cc(Cl)cc1Cl` [Example 391, 5-phenyl-2-({[(2,4,6-trichlorophenyl)amino]carbonyl}amino)-3-thiophenecarboxylic acid], with 6.78 µM; and `COC(=O)[C@@H](NC(=O)c1cc(-c2ccccc2)sc1NC(=O)Nc1c(Cl)cc(Cl)cc1Cl)C1CCCCC1` [Example 392, methyl(2S)-cyclohexyl({[5-phenyl-2-({[(2,4,6-trichlorophenyl)amino]carbonyl}amino)-3-thienyl]carbonyl}amino)ethanoate], with 1.32 µM.

For the molecule `CC(C)c1cc(C(=O)O)c(NC(=O)Nc2c(Cl)cccc2Cl)s1` [Example 394, 2-({[(2,6-dichlorophenyl)amino]carbonyl}amino)-5-(1-methylethyl)-3-thiophenecarboxylic acid], the IC50 under setting [1] was 19.3 µM. Against the preceding molecule, the IC50 is about 15-fold higher.

Under setting [2], `COC(=O)[C@@H](NC(=O)c1cc(C(C)C)sc1NC(=O)Nc1c(Cl)cccc1Cl)C1CCCCC1` [Example 395, methyl(2S)-cyclohexyl({[2-({[(2,6-dichlorophenyl)amino]carbonyl}amino)-5-(1-methylethyl)-3-thienyl]carbonyl}amino)ethanoate] displayed an IC50 of 4.49 µM.

Consider `O=C(Nc1sc(Cc2ccccc2)cc1C(=O)O)Nc1c(Cl)cccc1Cl` [Example 397, 2-({[(2,6-dichlorophenyl)amino]carbonyl}amino)-5-(phenylmethyl)-3-thiophenecarboxylic acid], for which half-maximal inhibition under setting [2] (IC50) required 14.3 µM. This IC50 is about 3.2-fold higher than that of the molecule before. Still for that read-out and setting: then `COC(=O)[C@@H](NC(=O)c1cc(Cc2ccccc2)sc1NC(=O)Nc1c(Cl)cccc1Cl)C1CCCCC1` [Example 398, methyl(2S)-cyclohexyl({[2-({[(2,6-dichlorophenyl)amino]carbonyl}amino)-5-(phenylmethyl)-3-thienyl]carbonyl}amino)ethanoate], with 3.06 µM; and `O=C(Nc1sc(Cc2ccccc2)cc1C(=O)N[C@H](C(=O)O)C1CCCCC1)Nc1c(Cl)cccc1Cl` [Example 399], with 6.7 µM; and `O=C(Nc1cc(-c2ccncc2)sc1C(=O)O)Nc1c(Cl)cccc1Cl` [Example 400, 3-({[(2,6-dichlorophenyl)amino]carbonyl}amino)-5-(4-pyridinyl)-2-thiophenecarboxylic acid], with 1.83 µM.

`COC(=O)[C@@H](NC(=O)c1sc(-c2ccncc2)cc1NC(=O)Nc1c(Cl)cccc1Cl)C1CCCCC1` [Example 401, methyl(2S)-cyclohexyl({[3-({[(2,6-dichlorophenyl)amino]carbonyl}amino)-5-(4-pyridinyl)-2-thienyl]carbonyl}amino)ethanoate] gave an IC50 under setting [2] of 14.9 µM. Compared with the last molecule, the IC50 is about 8.1-fold higher.

For `O=C(Nc1cc(-c2cccnc2)sc1C(=O)O)Nc1c(Cl)cccc1Cl` [Example 403, 3-({[(2,6-dichlorophenyl)amino]carbonyl}amino)-5-(3-pyridinyl)-2-thiophenecarboxylic acid], it took 4.22 µM to reach half-maximal inhibition under setting [2] (IC50). On the same count and under the same terms, then `COC(=O)[C@@H](NC(=O)c1sc(-c2cccnc2)cc1NC(=O)Nc1c(Cl)cccc1Cl)C1CCCCC1` [Example 404, methyl(2S)-cyclohexyl({[3-({[(2,6-dichlorophenyl)amino]carbonyl}amino)-5-(3-pyridinyl)-2-thienyl]carbonyl}amino)ethanoate], with 13.2 µM; and `O=C(Nc1cc(-c2cccnc2)sc1C(=O)N[C@H](C(=O)O)C1CCCCC1)Nc1c(Cl)cccc1Cl` [Example 405], with 0.23 µM; and `N#Cc1ccc(-c2cc(NC(=O)Nc3c(Cl)cccc3Cl)c(C(=O)O)s2)cc1` [Example 406, 5-(4-cyanophenyl)-3-({[(2,6-dichlorophenyl)amino]carbonyl}amino)-2-thiophenecarboxylic acid], with 1.11 µM. Still for that read-out and setting: then `N#Cc1ccc(-c2cc(NC(=O)Nc3c(Cl)cccc3Cl)c(C(=O)N[C@H](C(=O)O)C3CCCCC3)s2)cc1` [Example 407, (2S)-({[5-(4-cyanophenyl)-3-({[(2,6-dichlorophenyl)amino]carbonyl}amino)-2-thienyl]carbonyl}amino)(cyclohexyl)ethanoic acid], with 0.37 µM. The same measure, in the same setting: then `COc1ccc(-c2cc(NC(=O)Nc3c(Cl)cccc3Cl)c(C(=O)O)s2)cc1` [Example 408, 3-({[(2,6-dichlorophenyl)amino]carbonyl}amino)-5-[4-(methyloxy)phenyl]-2-thiophenecarboxylic acid], with 1.15 µM.

`COc1ccc(-c2cc(NC(=O)Nc3c(Cl)cccc3Cl)c(C(=O)N[C@H](C(=O)O)C3CCCCC3)s2)cc1` [Example 409, (2S)-cyclohexyl[({3-({[(2,6-dichlorophenyl)amino]carbonyl}amino)-5-[4-(methyloxy)phenyl]-2-thienyl}carbonyl)amino]ethanoic acid] showed an IC50 under setting [2] of 0.093 µM. On to `O=C(Nc1cc(-c2ccccc2)sc1C(=O)O)Nc1c(Cl)cccc1Cl` [Example 410, 3-({[(2,6-dichlorophenyl)amino]carbonyl}amino)-5-phenyl-2-thiophenecarboxylic acid], for which the IC50 under setting [2] was found to be 0.89 µM. This IC50 is about 9.6-fold higher than that of the molecule before. The same measure, in the same setting: then `O=C(Nc1cc(-c2ccccc2)sc1C(=O)N[C@H](C(=O)O)C1CCCCC1)Nc1c(Cl)cccc1Cl` [Example 411, (2S)-cyclohexyl({[3-({[(2,6-dichlorophenyl)amino]carbonyl}amino)-5-phenyl-2-thienyl]carbonyl}amino)ethanoic acid], with 0.12 µM. Under setting [2], `COc1ccc(-c2cc(C(=O)O)c(NC(=O)Nc3c(Cl)cccc3Cl)s2)cc1` [Example 412, 2-({[(2,6-dichlorophenyl)amino]carbonyl}amino)-5-[4-(methyloxy)phenyl]-3-thiophenecarboxylic acid] yielded an IC50 of 1.04 µM. This IC50 is about 8.7-fold higher than that of the molecule before. Same read-out and setting: then `O=C(Nc1sc(Br)cc1C(=O)O)Nc1c(Cl)cccc1Cl` [Example 413, 5-bromo-2-({[(2,6-dichlorophenyl)amino]carbonyl}amino)-3-thiophenecarboxylic acid], with 10.6 µM. Same read-out and setting: then `O=C(Nc1sc(-c2cccnc2)cc1C(=O)O)Nc1c(Cl)cccc1Cl` [Example 414, 2-({[(2,6-dichlorophenyl)amino]carbonyl}amino)-5-(3-pyridinyl)-3-thiophenecarboxylic acid], with 2.72 µM. On the same count and under the same terms, then `O=C(Nc1sc(-c2cccnc2)cc1C(=O)N[C@H](C(=O)O)C1CCCCC1)Nc1c(Cl)cccc1Cl` [Example 415, (2S)-cyclohexyl({[2-({[(2,6-dichlorophenyl)amino]carbonyl}amino)-5-(3-pyridinyl)-3-thienyl]carbonyl}amino)ethanoic acid], with 0.77 µM; and `COc1cccc(-c2cc(C(=O)O)c(NC(=O)Nc3c(Cl)cccc3Cl)s2)c1` [Example 416, 2-({[(2,6-dichlorophenyl)amino]carbonyl}amino)-5-[3-(methyloxy)phenyl]-3-thiophenecarboxylic acid], with 4.13 µM.

Under setting [2], `COc1cccc(-c2cc(C(=O)N[C@H](C(=O)O)C3CCCCC3)c(NC(=O)Nc3c(Cl)cccc3Cl)s2)c1` [Example 417, (2S)-cyclohexyl[({2-({[(2,6-dichlorophenyl)amino]carbonyl}amino)-5-[3-(methyloxy)phenyl]-3-thienyl}carbonyl)amino]ethanoic acid] had an IC50 of 0.36 µM. Compared with the last molecule, the IC50 is about 11-fold lower. The same measure, in the same setting: then `O=C(Nc1sc(-c2ccc(F)cc2)cc1C(=O)O)Nc1c(Cl)cccc1Cl` [Example 418, 2-({[(2,6-dichlorophenyl)amino]carbonyl}amino)-5-(4-fluorophenyl)-3-thiophenecarboxylic acid], with 2.97 µM; and `O=C(Nc1sc(-c2ccc(F)cc2)cc1C(=O)N[C@H](C(=O)O)C1CCCCC1)Nc1c(Cl)cccc1Cl` [Example 419, (2S)-cyclohexyl({[2-({[(2,6-dichlorophenyl)amino]carbonyl}amino)-5-(4-fluorophenyl)-3-thienyl]carbonyl}amino)ethanoic acid], with 0.6 µM.
